Here are results for 3 molecules from ChEMBL document CHEMBL5104137, “The overview of Mitogen-activated extracellular signal-regulated kinase (MEK)-based dual inhibitor in the treatment of cancers” (Bioorg Med Chem, 2022).

Broadly, the Cmax is the highest concentration seen after dosing. As a reminder, the IC50 is the point on the concentration scale where inhibition reaches its midpoint.

Series [1] is described as follows: Cmax in BomTac:NMRI-Foxn1 mouse xenografted with human Calu6 cells harboring KRAS Q61K mutant at 70 mg/kg per week, po via gavage by electrochemo-luminescence analysis. The format is ADME, organism-based, Calu-6. Also noted: dose 70 mg/kg, route po. Conditions: in vivo. (In general: In xenograft studies the graft and the host belong to different species.)
Series [2] is described as follows: Cmax in BomTac:NMRI-Foxn1 mouse xenografted with human Calu6 cells harboring KRAS Q61K mutant at 70 mg/kg per week, po via gavage measured after 24 hrs by electrochemo-luminescence analysis. Also noted: dose 70 mg/kg, time 24 hrs, route po. Type of series: ADME, organism-based, Calu-6. Conditions: in vivo.
Series [3] is described as follows: Inhibition of Xenopus laevis Aurora Kinase C.
The next series addresses Aurora kinase B-B (Xenopus laevis, UniProt Q6GPL3). Description: Inhibition of Xenopus laevis Aurora Kinase B.
A short description of series [4]: Cmax in BomTac:NMRI-Foxn1 mouse xenografted with human Calu6 cells harboring KRAS Q61K mutant at 10 mg/kg per day, po via gavage measured after 24 hrs by electrochemo-luminescence analysis. Also noted: time 24 hrs, dose 10 mg/kg, route po. Conditions: in vivo. The format is ADME, organism-based, Calu-6.
Series [5] can be described thus: Cmax in BomTac:NMRI-Foxn1 mouse xenografted with human Calu6 cells harboring KRAS Q61K mutant at 10 mg/kg per day, po via gavage by electrochemo-luminescence analysis. The format is ADME, organism-based, Calu-6. Also on record: dose 10 mg/kg, route po. Conditions: in vivo.
The subject of the next series is HCT-116. Kind of series: Antiproliferative activity against human HCT-116 cells harboring […] mutant assessed as cell growth inhibition measured after 72 hrs by WST-8 assay. Type of series: functional, cell-based. The note with it: HCT-116, 72 h. A general note: Tetrazolium dyes change colour on reduction, which living cells bring about.
The subject of the next series is SK-MEL-28. Kind of series: Antiproliferative activity against human SK-MEL-28 cells harboring BRAF V600E mutant assessed as cell growth inhibition measured after 72 hrs by WST-8 assay. Conditions: SK-MEL-28, 72 h. Type of series: functional, cell-based.
The target in series [6] is Serine/threonine-protein kinase B-raf (Homo sapiens, UniProt P15056, V600E). Description: Inhibition of human BRAF V600E mutant using 5-Fl-SGQLIDSMANSFV-NH2 peptide as substrate by FRET assay.
Sequence of Serine/threonine-protein kinase B-raf (Homo sapiens, UniProt P15056, V600E) (P15056 2-766 V600E limits assumed): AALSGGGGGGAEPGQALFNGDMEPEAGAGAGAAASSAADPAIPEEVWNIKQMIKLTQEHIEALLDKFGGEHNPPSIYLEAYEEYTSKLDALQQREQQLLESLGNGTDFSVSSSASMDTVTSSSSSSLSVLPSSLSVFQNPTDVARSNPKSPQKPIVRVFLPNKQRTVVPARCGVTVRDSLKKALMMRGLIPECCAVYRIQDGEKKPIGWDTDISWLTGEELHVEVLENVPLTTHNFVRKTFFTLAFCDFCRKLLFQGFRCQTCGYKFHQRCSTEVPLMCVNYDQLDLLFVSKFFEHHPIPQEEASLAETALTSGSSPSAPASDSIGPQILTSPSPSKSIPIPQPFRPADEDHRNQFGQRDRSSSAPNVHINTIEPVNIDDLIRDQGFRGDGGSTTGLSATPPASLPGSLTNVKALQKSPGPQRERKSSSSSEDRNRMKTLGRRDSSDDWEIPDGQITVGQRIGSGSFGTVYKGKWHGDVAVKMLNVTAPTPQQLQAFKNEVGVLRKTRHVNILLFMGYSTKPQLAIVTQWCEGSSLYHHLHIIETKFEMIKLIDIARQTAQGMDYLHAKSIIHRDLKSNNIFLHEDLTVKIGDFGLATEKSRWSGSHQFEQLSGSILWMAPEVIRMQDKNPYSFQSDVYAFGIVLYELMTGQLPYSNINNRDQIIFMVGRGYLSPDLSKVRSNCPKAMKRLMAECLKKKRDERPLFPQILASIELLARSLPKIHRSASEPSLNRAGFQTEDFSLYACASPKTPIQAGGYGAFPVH
Another series relates to SK-MEL-2. Kind of series: Antiproliferative activity against human SK-MEL-2 cells harboring NRAS Q61R mutant assessed as cell growth inhibition measured after 72 hrs by WST-8 assay. The format is functional, cell-based. Conditions: SK-MEL-2, 72 h.
The test system of a further series is SW480. Description: Antiproliferative activity against human SW480 cells harboring […] mutant assessed as cell growth inhibition measured after 72 hrs by WST-8 assay. The format is functional, cell-based. Conditions: SW480, 72 h.
Series [7] addresses Serine/threonine-protein kinase B-raf (Homo sapiens, UniProt P15056). Description: Inhibition of wild type human BRAF using 5-Fl-SGQLIDSMANSFV-NH2 peptide as substrate by FRET assay.
A further series has as its system MIA PaCa-2. Description: Antiproliferative activity against human MIA PaCa-2 cells harboring […] mutant assessed as cell growth inhibition measured after 72 hrs by WST-8 assay. The format is functional, cell-based. The note with it: MIA PaCa-2, 72 h.
Series [8] is described as follows: Antiproliferative activity against human CT-TC cells harboring HRAS Q61K mutant assessed as cell growth inhibition measured after 72 hrs by WST-8 assay. Type of series: functional, cell-based.
Series [9] can be described thus: Inhibition of human MEK using 5-Fl-SGQLIDSMANSFV-NH2 peptide as substrate by FRET assay.
The test system of a further series is MV4-11. Kind of series: Antiproliferative activity against human MV4-11 cells harboring FLT3-ITD mutant assessed as cell growth inhibition by trypan blue staining based assay. The format is functional.
The subject of series [10] is BaF3. Kind of series: Antiproliferative activity against […] cells harboring D835Y mutant assessed as cell growth inhibition by trypan blue staining based assay. Conditions: Mus musculus. Type of series: functional.
The subject of another series is MOLM-13. Kind of series: Antiproliferative activity against human MOLM13 cells harboring FLT3-ITD mutant assessed as cell growth inhibition by Trypan blue staining based assay. Type of series: functional.
Series [11] concerns BaF3. Kind of series: Antiproliferative activity against […] cells harboring D835G mutant assessed as cell growth inhibition by trypan blue staining based assay. Type of series: functional. Conditions: Mus musculus.

Sequence of Aurora kinase B-B (Q6GPL3 whole entry): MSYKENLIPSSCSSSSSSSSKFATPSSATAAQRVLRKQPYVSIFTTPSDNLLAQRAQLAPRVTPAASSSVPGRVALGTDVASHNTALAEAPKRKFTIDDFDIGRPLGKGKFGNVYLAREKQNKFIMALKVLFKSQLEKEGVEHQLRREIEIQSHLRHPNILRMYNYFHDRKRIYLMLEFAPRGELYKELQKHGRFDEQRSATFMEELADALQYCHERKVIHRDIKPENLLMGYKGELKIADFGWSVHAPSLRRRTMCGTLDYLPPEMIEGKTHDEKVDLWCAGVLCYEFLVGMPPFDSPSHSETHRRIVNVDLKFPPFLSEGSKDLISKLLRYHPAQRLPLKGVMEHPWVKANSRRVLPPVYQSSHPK
Sequence of Serine/threonine-protein kinase B-raf (Homo sapiens, UniProt P15056) (P15056 whole entry): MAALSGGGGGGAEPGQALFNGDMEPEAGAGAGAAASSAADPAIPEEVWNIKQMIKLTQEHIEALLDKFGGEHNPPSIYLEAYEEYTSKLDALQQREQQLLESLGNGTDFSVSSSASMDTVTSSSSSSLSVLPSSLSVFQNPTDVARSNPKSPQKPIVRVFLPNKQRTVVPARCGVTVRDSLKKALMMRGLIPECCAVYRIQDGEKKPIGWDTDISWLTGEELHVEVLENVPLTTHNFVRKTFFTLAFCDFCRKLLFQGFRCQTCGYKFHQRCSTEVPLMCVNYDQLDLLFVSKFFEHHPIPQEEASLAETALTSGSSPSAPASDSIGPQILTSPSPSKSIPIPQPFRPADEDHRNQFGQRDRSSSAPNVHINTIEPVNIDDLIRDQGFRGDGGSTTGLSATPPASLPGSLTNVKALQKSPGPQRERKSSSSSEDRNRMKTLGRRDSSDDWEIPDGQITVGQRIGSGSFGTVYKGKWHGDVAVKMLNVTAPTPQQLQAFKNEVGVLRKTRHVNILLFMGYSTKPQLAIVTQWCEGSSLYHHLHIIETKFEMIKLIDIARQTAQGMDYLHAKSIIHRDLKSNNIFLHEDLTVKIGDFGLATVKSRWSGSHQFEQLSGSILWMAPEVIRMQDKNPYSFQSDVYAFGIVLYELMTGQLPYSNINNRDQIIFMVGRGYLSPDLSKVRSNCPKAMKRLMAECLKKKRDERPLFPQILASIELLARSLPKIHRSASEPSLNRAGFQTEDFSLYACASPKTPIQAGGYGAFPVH

For the molecule `CCNC(=O)C#Cc1ccc2c(c1)NC(=O)/C2=C(\Nc1ccc(CN(C)C)cc1)c1ccccc1`, the Cmax in [1] turned out to be 2700 nM; in series [2], 460 nM; in [4] it was 13 nM; in series [5], 380 nM. In addition, the IC50 in [3] was 15 nM; on Aurora kinase B-B, 3 nM.
`CNS(=O)(=O)Nc1nccc(Cc2c(C)c3ccc(Oc4ncccn4)cc3oc2=O)c1F` [AVUTOMETINIB]: the IC50 came out at 277 nM in the series with HCT-116; 65 nM in the series with SK-MEL-28; 8.2 nM in [6]; 28 nM in the series on SK-MEL-2; 46 nM in the series on SW480; 19 nM in series [7]. For the same molecule, the IC50 with MIA PaCa-2 came out at 40 nM; in [8] it was 360 nM; in [9], 160 nM.
Turning to `CCNc1cc(O)c2c(c1)/C=C/C[C@H](O)[C@H](O)C(=O)/C=C\[C@@H](C)[C@H](C)OC2=O` [E-6201], the IC50 is 2 nM in the series on MV4-11, 26 nM with BaF3 [10], 5 nM in the series on MOLM-13 and 4.6 nM in the series with BaF3 [11].
